PMC5296733, “Functional Coupling of Human Microphysiology Systems: Intestine, Liver, Kidney Proximal Tubule, Blood-Brain Barrier and Skeletal Muscle” (Scientific Reports, 2017)
Read-outs that look alike come from different tables or passages of the source. One block for each compound: values may come before it.

Columns and labels:
[1] = test system: static SQL-SAL liver model; assay: Static 4-cell SQL-SAL liver in 96-well microplates (vitamin D3); format: in vitro ADME, human; details: for Concentration in liver efflux media: vitamin D3 experiment, 96-well 4-cell liver module, 72 h, media pooled
Method: Media without dexamethasone was used to avoid downstream toxicity to the human neurons in the NVU. […]
The intestinal/liver-conditioned media efflux was collected and samples were tested by MS or transported on dry ice for testing in the kidney module, or the BBB/NVU module.
Dexamethasone, normally used to maintain hepatocyte differentiation, was removed from the liver media for functional coupling to avoid downstream toxicity to the human neurons in the NVU. […] Briefly, cryopreserved human hepatocytes were seeded into collagen type 1 coated 96-well plates at 26,000 hepatocytes/well and allowed to attach overnight in hepatocyte plating media (HPM). The HPM was decanted and 1.25x10^5 Ea.Hy.926 endothelial cells and 8 X10^4 differentiated U937 immune cells in MEM media supplemented with 10% FBS and L-Glutamine were added. After 2 h the media was decanted and 40 µL of a slurry of 1.5 mg/mL gelling collagen type 1 in Williams E media with 4 X 10^4 LX-2 stellate cells was added.

[2] = test system: blood-brain barrier/neurovascular unit (BBB/NVU); assay: BBB/NVU module penetration; details: for Penetration through blood-brain barrier (MPS): BBB/NVU module, TMAO 12 h, others 24 h
[3] = test system: proximal tubule kidney (PTK) module; assay: Proximal tubule kidney (PTK) module, vitamin D3 metabolites
[4] = test system: differentiated human jejunal enteroids; assay: Intestine module: jejunal enteroid Transwell transport and metabolism; details: for Concentration in micelle preparation: synthetic micelles containing 100 μM vitamin D3
[5] = test system: differentiated human jejunal enteroids
Liver MPS Organ Module = assay: Effect of vitamin D binding protein on recovery and metabolism in liver module; format: in vitro ADME, human; details: for 25-(OH) VD3 formation / VD3 Recovered in Efflux Media: 7 μM VitD3
Method: Media without dexamethasone was used to avoid downstream toxicity to the human neurons in the NVU. […] Media samples were collected after 24 h and 48 h incubations.
Samples from the treatment conditions were collected after 24-h and 48-h incubations and stored in amber glass vials at -80°C for LC-MS/MS analysis.

[6] = cited from earlier work
[7] = test system: Kidney MPS Organ Module (PTK); assay: Vitamin D binding protein as carrier in PTK module; details: 1 μM 25-(OH) VD3
[8] = test system: vascularized proximal tubule kidney (VPTK) module; assay: Vascularized proximal tubule kidney (VPTK) module secretion; details: for Excreted into proximal tubule lumen, MPS: Table 2, MPS model
[9] = test system: blood-brain barrier/neurovascular unit (BBB/NVU); details: human, 24 h
[10] = 0-48 h, 50% liver-conditioned, N=2
[11] = 100 μM vitamin D3 micelles apical, 24 h
[12] = initial four-organ functional study, no DBP
[13] = TMA experiment, liver-conditioned media, Brain (12 h)
[14] = kidney perfused at 3.75 X 10^5 ng/ml TMAO spiked media, 0-6 h
[15] = kidney perfused with liver conditioned media, 0-6 h
[16] = 3 mM TMA added to apical compartment, 0-24 h
[17] = liver-conditioned media, 6 h perfusion
[18] = terfenadine experiment, liver-conditioned media, 0-6 h

SMILES: C=C1CC[C@H](O)[C@H](O)/C1=C/C=C1\CCC[C@]2(C)[C@@H]([C@H](C)CCCC(C)(C)O)CC[C@@H]12 [4β,25-(OH)2 Vitamin D3, 4β,25-(OH)2 vitamin D3]
Concentration in liver efflux media [1]: 0.047 ng/mL
Concentration in brain neuronal efflux ([2]; vitamin D3 experiment, 24 h): LOD
Concentration in brain vascular efflux ([2]; vitamin D3 experiment, 24 h): 0.0081 ± 0.0029 ng/mL
Concentration in kidney efflux media [3, 10]: 0.0033 ng/mL
Concentration in kidney efflux media ([3]; 0-48 h, 80% liver-conditioned): 0.0064 ng/mL
Concentration in kidney efflux media ([3]; 0-120 h, 50% liver-conditioned): 0.0076 ng/mL
Concentration in kidney efflux media ([3]; 0-120 h, 80% liver-conditioned): 0.014 ng/mL
Concentration in intestine apical media [4, 11]: < LOD^2 < LOD < LOD
Concentration in intestine basolateral media [4, 11]: < LOD^2 < LOD < LOD
Concentration in micelle preparation [4]: < LOD^2 < LOD < LOD

Concentration in liver efflux media [1]: 0.0064 ng/mL
Concentration in micelle preparation [5]: < LOD^2 < LOD < LOD
SMILES: C=C1/C(=C\C=C2/CCC[C@]3(C)[C@@H]([C@H](C)CCCC(C)(C)O)CC[C@@H]23)C[C@@H](O)C[C@@H]1O [1α,25-(OH)2 Vitamin D3, 1α,25-(OH)2 vitamin D3]

SMILES: C=C1CC[C@H](O)C/C1=C/C=C1\CCC[C@]2(C)[C@@H]([C@H](C)CCCC(C)(C)O)CC[C@@H]12 [25-(OH) Vitamin D3, 25-(OH) vitamin D3]
Concentration in liver efflux media [1]: 3.0 ng/mL
25-(OH) VD3 formation as % of in vivo rate (Liver MPS Organ Module; 0-24 h, 3 μM DBP): 4.9 % of in vivo rate
25-(OH) VD3 formation as % of in vivo rate (Liver MPS Organ Module; 0-24 h, no DBP): 2.7 % of in vivo rate
25-(OH) VD3 formation (Liver MPS Organ Module; 0-24 h, 3 μM DBP): 12.63 pmol/day/10^6 Hepatocytes
25-(OH) VD3 formation (Liver MPS Organ Module; 0-24 h, no DBP): 7.00 pmol/day/10^6 Hepatocytes
Improvement of formation and recovery of the metabolite with DBP (Liver MPS Organ Module; DBP:vitamin D3 3:1 versus no DBP): 2–3 fold
Kidney metabolism, Clinical ([6]; Table 2, clinical): 25(OH)VD3 → 1α,25(OH)2VD3 & 24,25(OH)2VD3
Penetration through blood-brain barrier, Clinical ([6]; Table 2, clinical): VD3 & 25(OH)VD3 Penetration
Plasma 25-(OH) vitamin D3 transported by DBP ([6]; in humans): 85–90%
Penetration through blood-brain barrier (MPS) ([2]; liver-conditioned media): approximately 6%
Penetration through blood-brain barrier (MPS) ([2]; liver-conditioned media, listed as 25(OH) VD3): 6%
Concentration in brain neuronal efflux ([2]; vitamin D3 experiment, 24 h): 0.051 ± 0.022 ng/mL
Concentration in brain vascular efflux ([2]; vitamin D3 experiment, 24 h): 0.82 ± 0.15 ng/mL
25-(OH) VD3 recovery ([7]; 48-72 h, Renal Tubular Epithelial Media + 3 μM Vitamin D Binding Protein): 100%
25-(OH) VD3 recovery ([7]; 48-72 h, Renal Tubular Epithelial Media + 2% FBS): 8%
Recovered from syringes and tubing leading up to MPS module ([7]; media + 2% FBS): 16%
Concentration in kidney efflux media [3, 10]: 0.12 ng/mL
Concentration in kidney efflux media ([3]; 0-48 h, 80% liver-conditioned): 0.23 ng/mL
Concentration in kidney efflux media ([3]; 0-120 h, 50% liver-conditioned): 0.29 ng/mL
Concentration in kidney efflux media ([3]; 0-120 h, 80% liver-conditioned): 0.48 ng/mL
25-(OH) vitamin D3 perfused into the kidney that was unrecoverable [3, 12]: 90%
Concentration in intestine apical media [4, 11]: < LOQ^1 < LOQ < LOQ
Concentration in intestine basolateral media [4, 11]: < LOQ^1 < LOQ < LOQ
Concentration in micelle preparation [4]: < LOQ^1 < LOQ < LOQ

SMILES: CN(C)C [TMA, trimethylamine]
Intestine fate, Clinical ([6]; Table 2, clinical): Uptake & Transport
Liver metabolism, Clinical ([6]; Table 2, clinical): TMA → TMAO
TMA Clearance (liver), Clinical ([6]; Table 2, clinical): < 5%
Concentration in brain neuronal efflux [2, 13]: < LOQ < LOQ
Concentration in brain vascular efflux [2, 13]: < LOQ < LOQ
Concentration in kidney plasma efflux [8, 14]: < LOQ < LOQ
Concentration in kidney proximal tubule lumen [8, 14]: < LOQ < LOQ
Concentration in kidney plasma efflux [8, 15]: < LOQ <LOQ
Concentration in kidney proximal tubule lumen [8, 15]: < LOQ <LOQ
Share of starting TMA concentration found in basolateral media ([4]; 316 μg/mL (3 mM) apical, 24 h): 6%
Concentration in intestine basolateral media [4, 16]: 19100 ± 2179 ng/mL
Concentration in intestine basolateral media ([4]; TMA hydrochloride 316 μg/mL (3 mM) apical, 24 h): 19100 ± 2200 ng/mL
Intestine fate, MPS ([4]; Table 2, MPS model): Uptake & Transport

SMILES: C=C1CC[C@H](O)C/C1=C/C=C1\CCC[C@]2(C)[C@@H]([C@H](C)CCCC(C)C)CC[C@@H]12 [Vitamin D3, vitamin D3, reference compound]
Liver metabolism, MPS ([1]; Table 2, MPS model, vitamin D3): VD3 → 25(OH)VD3 & 24,25(OH)2VD3
Vitamin D3 perfused into the liver that was unrecoverable [1, 12]: 80%
Concentration in liver efflux media [1]: 1100 (pooled)^3 ng/ml
VD3 Recovered in Efflux Media (Liver MPS Organ Module; 0-24 h, Williams E Media + 1.25 mg/ml BSA (no DBP)): 20%
VD3 Recovered in Efflux Media (Liver MPS Organ Module; 0-24 h, Williams E Media + 1.25 mg/ml BSA (no DBP), listed as VD3): 20% recovery
VD3 Recovered in Efflux Media (Liver MPS Organ Module; 0-24 h, Williams E Media, 1.25 mg/ml BSA, 3 μM Vitamin D Binding Protein, listed as VD3): 57% recovery
VD3 Recovered in Efflux Media (Liver MPS Organ Module; 24-48 h, Williams E Media, 1.25 mg/ml BSA, 3 μM Vitamin D Binding Protein): ~100%
VD3 Recovered in Efflux Media (Liver MPS Organ Module; 24-48 h, Williams E Media, 1.25 mg/ml BSA, 3 μM Vitamin D Binding Protein, listed as VD3): 100% recovery
Concentration in intestine apical media ([5]; human, 24 h, 100 µM): 20000 ± 2200 ng/mL
Concentration in intestine basolateral media ([5]; human, 24 h, 100 µM): 8300 ± 410 ng/mL
Concentration in brain neuronal efflux [9]: 0.19 ± 0.23 ng/mL
Concentration in brain vascular efflux [9]: 45 ± 6.2 ng/mL
Penetration through blood-brain barrier, Clinical ([6]; Table 2, clinical): VD3 & 25(OH)VD3 Penetration
Penetration through blood-brain barrier (MPS) ([2]; liver-conditioned media): 0.4%
Concentration in kidney efflux media [3, 10]: 1.5 ng/mL
Concentration in kidney efflux media ([3]; 0-48 h, 80% liver-conditioned): 4.3 ng/mL
Concentration in kidney efflux media ([3]; 0-120 h, 50% liver-conditioned): 1.0 ng/mL
Concentration in kidney efflux media ([3]; 0-120 h, 80% liver-conditioned): 1.4 ng/mL
Share of initial vitamin D3 concentration transported to basolateral media ([4]; 100 μM vitamin D3 in micelles apical, 24 h): 23%
Concentration in micelle preparation [4]: 36000 ± 4200 ng/mL

SMILES: C[N+](C)(C)[O-] [TMAO, trimethylamine-N-oxide]
Excreted into proximal tubule lumen, Clinical ([6]; Table 2, clinical): > 95% TMAO Excreted
Concentration in brain neuronal efflux [2, 13]: 1800 ± 100 ng/mL
Concentration in brain vascular efflux [2, 13]: 4600 ± 200 ng/mL
Concentration in BBB/NVU neuronal efflux ([2]; TMA experiment, 12 h perfusion): 1800 ± 100 ng/mL
Concentration in BBB/NVU vascular efflux ([2]; TMA experiment, 12 h perfusion): 4600 ± 200 ng/mL
Excreted into proximal tubule lumen, MPS [8]: ~46% TMAO Excreted
TMAO secreted into the kidney lumen ([8]; independent experiment, media with 375 μg/mL TMAO): 46%
Concentration in kidney plasma efflux [8, 15]: 21720 ± 6967 ng/mL
Concentration in kidney proximal tubule lumen [8, 15]: 450 ± 290 ng/mL
Share of TMAO found in lumenal media [8, 17]: 5%
Share of TMAO found in vascular media [8, 17]: 95%
Concentration in intestine apical media [4, 16]: < LOQ^1 < LOQ
Concentration in intestine basolateral media [4, 16]: < LOQ^1 < LOQ

SMILES: C=C1CCC(O)C/C1=C\C=C1\CCCC2(C)C1CCC2C(C)CCC(O)C(C)(C)O (stereo not shown) [24,25-(OH)2 Vitamin D3, 24,25-(OH)2 vitamin D3]
Concentration in liver efflux media [1]: 0.25 ng/mL
Concentration in brain neuronal efflux ([2]; vitamin D3 experiment, 24 h): LOQ
Concentration in brain vascular efflux ([2]; vitamin D3 experiment, 24 h): 0.079 ± 0.015 ng/mL
Metabolite formation in kidney efflux ([7]; 48-72 h, media + 2% FBS): 6.80 ± 1.6 pmol/day/ 10^6 Proximal Tubule Cells
Concentration in kidney efflux media [3, 10]: 0.082 ng/mL
Concentration in kidney efflux media ([3]; 0-48 h, 80% liver-conditioned): 0.12 ng/mL
Concentration in kidney efflux media ([3]; 0-120 h, 50% liver-conditioned): 0.11 ng/mL
Concentration in kidney efflux media ([3]; 0-120 h, 80% liver-conditioned): 0.16 ng/mL
Concentration in intestine apical media [4, 11]: < LOD^2 < LOD < LOD
Concentration in intestine basolateral media [4, 11]: < LOD^2 < LOD < LOD
Concentration in micelle preparation [4]: < LOD^2 < LOD < LOD

Excreted into proximal tubule lumen, MPS [8]: ~ 1% Fex Excreted
Share of total fexofenadine found in lumen media ([8]; liver-conditioned media, 6 h): ~1%
SMILES: CC(C)(C(=O)O)c1ccc(C(O)CCCN2CCC(C(O)(c3ccccc3)c3ccccc3)CC2)cc1 (stereo not shown) [Fexofenadine, fexofenadine, reference compound]
Excreted into proximal tubule lumen, Clinical ([6]; Table 2, clinical): 11% Fex Excreted

Concentration in kidney plasma (vascular) efflux [8, 18]: < LOQ^2 < LOQ
Concentration in kidney proximal tubule lumen [8, 18]: < LOQ^2 < LOQ
SMILES: CC(C)(C)c1ccc(C(O)CCCN2CCC(C(O)(c3ccccc3)c3ccccc3)CC2)cc1 (stereo not shown) [Terfenadine, terfenadine, reference compound]
Bio T (liver), Clinical ([6]; Table 2, clinical): < 1%
Intestine fate, Clinical ([6]; Table 2, clinical): Ter → Fex
